# Source: patent US11833116B2 (TCI CO., LTD., priority 2020, dated 2023)
# How the values were obtained:
# CCT7 gene = assay: Antiaging-related gene expression in PBMC cells (qRT-PCR): CCT7; type: cell-based, human; details: 0.25 vol %, 24 hours, control group = 1.00
# From the text: (§1) Herein, the tested antiaging-related genes are antiaging genes including CCT5 gene (Gene ID: 22948), CCT6A gene (Gene ID: 908), CCT7 gene (Gene ID: 10574), CCT8 gene (Gene ID: 10694), PARP2 gene (Gene ID: 10038), Parkin gene (Gene ID: 5071), Atg1 gene (Gene ID: 8408), Arg8 gene (Gene ID: 11345), FOX) gene (Gene ID: 2308), SIRT1 gene (Gene ID: 23411), […] gene (Gene ID: 55191), and MRPS3 gene (Gene ID: 64969). A medium used was an X-VIVOTM 15 serum-free hematopoietic cell medium (manufacturer: Lonza; product No.: 04-[…]) supplemented with 10 vol % of fetal bovine serum (FBS; brand: Gibco) and 1 vol % of penicillin/streptomycin (brand: Gibco), hereinafter referred to as a cell medium. […] Then, by using an ABI StepOnePlusTM Real-Time PCR system (Thermo Fisher Scientific Company, USA), KAPA SYBR FAST (purchased from Sigma Company, USA, No. 38220000000) and primers of Table 1 (SEQ ID NO: 1 to SEQ ID NO: 24), a quantitative real-time reverse transcription polymerase chain reaction was performed on the cDNA of each group to observe the expression levels of antiaging-related genes in PBMC cells. […] Herein, the quantitative real-time reverse transcription polymerase chain reaction of the cDNA can indirectly quantify an mRNA expression level of a gene, and then infer the expression level of protein encoded by the gene. […]
# Atg8 gene = assay: Antiaging-related gene expression in PBMC cells (qRT-PCR): Atg8; type: cell-based, human; details: 0.25 vol %, 24 hours, control group = 1.00
# From the text: as §1
# CCT6A gene = assay: Antiaging-related gene expression in PBMC cells (qRT-PCR): CCT6A; type: cell-based, human; details: 0.25 vol %, 24 hours, control group = 1.00
# From the text: as §1
# Parkin gene = assay: Antiaging-related gene expression in PBMC cells (qRT-PCR): Parkin; type: cell-based, human; details: 0.25 vol %, 24 hours, control group = 1.00
# From the text: Herein, the tested antiaging-related genes are antiaging genes including CCT5 gene (Gene ID: 22948), CCT6A gene (Gene ID: 908), CCT7 gene (Gene ID: 10574), CCT8 gene (Gene ID: 10694), PARP2 gene (Gene ID: 10038), Parkin gene (Gene ID: 5071), Atg1 gene (Gene ID: 8408), Arg8 gene (Gene ID: 11345), FOX) gene (Gene ID: 2308), SIRT1 gene (Gene ID: 23411), NADSYN gene (Gene ID: 55191), and MRPS3 gene (Gene ID: 64969).
# A medium used was an X-VIVO™ 15 serum-free hematopoietic cell medium (manufacturer: Lonza; product No.: 04-418Q) supplemented with 10 vol % of fetal bovine serum (FBS; brand: Gibco) and 1 vol % of penicillin/streptomycin (brand: Gibco), hereinafter referred to as a cell medium. […]
# PBMC cells were collected from each group, and RNA of each group was extracted with an RNA extraction reagent kit (purchased from Geneaid, Taiwan, China, Lot No. FC24015-G). […] Then, by using an ABI StepOnePlus™ Real-Time PCR system (Thermo Fisher Scientific Company, USA), KAPA SYBR FAST (purchased from Sigma Company, USA, No. 38220000000) and primers of Table 1 (SEQ ID NO: 1 to SEQ ID NO: 24), a quantitative real-time reverse transcription polymerase chain reaction was performed on the cDNA of each group to observe the expression levels of antiaging-related genes in PBMC cells. […]
# CCT8 gene = assay: Antiaging-related gene expression in PBMC cells (qRT-PCR): CCT8; type: cell-based, human; details: 0.25 vol %, 24 hours, control group = 1.00
# From the text: as §1
# [1] = system: mouse brain neuroblastoma cells (Neuro2a); assay: Inhibition of ROS generation (hydrogen peroxide treatment), DCFH-DA flow cytometry; type: cell-based
# Description: A medium used was a DMEM medium (Dulbecco's Modified Eagle Medium; brand: Gibco) supplemented with 10 vol % of fetal bovine serum (FBS; brand: Gibco) and 1 vol % of penicillin/streptomycin (brand: Gibco), hereinafter referred to as a cell medium. A DCFH-DA solution used was a reaction solution prepared by dissolving 2,7-dichloro-dihydro-fluorescein diacetate (DCFH-DA, product code SI-D6883, purchased from Sigma) in dimethyl sulfoxide (DMSO, purchased from Sigma, product code SI-D6883-50MG). […]
# Flow cytometry (manufacturer: Beckman; Catalog No. 660519) was used to detect a fluorescence signal of DCFH-DA in the cell solutions to be assayed in each group. The excitation wavelength of fluorescence detection used was 450 nm to 490 nm, and the emission wavelength was 510 nm to 550 nm. Since DCFH-DA will first be hydrolyzed to DCFH (dichloro-dihydro-fluorescein) after entering the Neuro2a cells, and then oxidized by reactive oxygen species (ROS) into DCF (dichloro-fluorescein) that emits green fluorescence, the fluorescence intensity of the Neuro2a cells treated with the DCFH-DA can reflect the content of reactive oxygen species (ROS) in the Neuro2a cells, and from this, the ratio of the number of cells with highly expressed reactive oxygen species (ROS) in the Neuro2a cells to the number of original cells can be known.
# FOXO gene = assay: Antiaging-related gene expression in PBMC cells (qRT-PCR): FOXO; type: cell-based, human; details: 0.25 vol %, 24 hours, control group = 1.00
# From the text: as §1
# NADSYN gene = assay: Antiaging-related gene expression in PBMC cells (qRT-PCR): NADSYN; type: cell-based, human; details: 0.25 vol %, 24 hours, control group = 1.00
# From the text: as §1
# PARP2 gene = assay: Antiaging-related gene expression in PBMC cells (qRT-PCR): PARP2; type: cell-based, human; details: 0.25 vol %, 24 hours, control group = 1.00
# From the text: as §1
# [2] = system: mouse brain neuroblastoma cells (Neuro2a); assay: Mitochondrial activity (JC-1 mitochondrial membrane potential, flow cytometry); type: cell-based; details: 0.25 vol %, 24 hours, control group = 100%
# From the text: A medium used was a DMEM medium (Dulbecco's Modified Eagle Medium; brand: Gibco) supplemented with 10 vol % of fetal bovine serum (FBS; brand: Gibco) and 1 vol % of penicillin/streptomycin (brand: Gibco), hereinafter referred to as a cell medium. A mitochondrial activity test method used was to use a mitochondrial membrane potential detection kit (BD™ MitoScreen (JC-1) kit, model 551302) to measure the mitochondrial membrane potential and perform mitochondrial activity analysis. The mitochondrial membrane potential detection kit included a JC-1 stain (freeze-dried) and a 10×assay buffer. Before use, the 10×assay buffer was diluted 10 times with 1×PBS to form a 1×assay buffer. 130 μL of DMSO was added to the JC-1 stain (freeze-dried) to form a JC-1 stock solution. Then, the JC-1 stock solution was diluted with the 1×assay buffer to form a JC-1 working solution (JC-1 mitochondrial specific stain). The dilution ratio of the JC-1 stock solution to the 1×assay buffer was 1:100.
# First, 1×10^5 mouse neuroblastoma cells (ATCC CCL-131; hereinafter referred to as Neuro2a cells) were added into a six-well cell culture plate containing 2 mL of the above cell medium per well, and cultured at 37° C. for 24 hours. […]
# Atg1 gene = assay: Antiaging-related gene expression in PBMC cells (qRT-PCR): Atg1; type: cell-based, human; details: 0.25 vol %, 24 hours, control group = 1.00
# From the text: as §1
# SIRT1 gene = assay: Antiaging-related gene expression in PBMC cells (qRT-PCR): SIRT1; type: cell-based, human; details: 0.25 vol %, 24 hours, control group = 1.00
# From the text: as §1
# CCT5 gene = assay: Antiaging-related gene expression in PBMC cells (qRT-PCR): CCT5; type: cell-based, human; details: 0.25 vol %, 24 hours, control group = 1.00
# From the text: as §1
# MRPS5 gene = assay: Antiaging-related gene expression in PBMC cells (qRT-PCR): MRPS5; type: cell-based, human; details: 0.25 vol %, 24 hours, control group = 1.00
# From the text: as §1
smiles,measurement,setting,value
NC(=O)c1ccc[n+]([C@@H]2O[C@H](COP(=O)([O-])O)[C@@H](O)[C@H]2O)c1 [nicotinamide mononucleotide],relative expression of the CCT7 gene,CCT7 gene,1.0672
same,relative expression of the Atg8 gene,Atg8 gene,1.02
same,relative expression of the CCT6A gene,CCT6A gene,1.62
same,relative expression of the Parkin gene,Parkin gene,1.61
same,relative expression of the CCT8 gene,CCT8 gene,1.72
same,relative ROS production,"[1]; 24 h with 0.25 vol % yeast powder or 10 μL of 200 mM synthetic NMN, then hydrogen peroxide 1 hour, blank group = 100%, H2O2 control group 487.6%",452.5%
same,"decrease in relative ROS production versus H2O2 control (percentage points, blank = 100%)","[1]; hydrogen peroxide, versus control group 487.6%",35.1%
same,relative expression of the FOXO gene,FOXO gene,0.79
same,relative expression of the NADSYN gene,NADSYN gene,5.84
same,relative expression of the PARP2 gene,PARP2 gene,0.67
same,relative JC-1 accumulation,[2],42.93%
same,relative expression of the Atg1 gene,Atg1 gene,1.25
same,relative expression of the SIRT1 gene,SIRT1 gene,4.30
same,relative expression of the CCT5 gene,CCT5 gene,1.55
same,relative expression of the MRPS5 gene,MRPS5 gene,0.80
